We go through 5 compounds from patent publication US10827753B2, “Compositions and methods for controlling nematodes” (Monsanto Technology LLC, priority 2007, dated 2020).

Marks after values point to notes of the source that are not given here.

Series [1] deals with Heterodera glycines (SCN). The series is described as follows: Seed treatment test of soybean cyst nematode on soybean plants. Format: in vivo. Conditions: test a. How it is done:
For a given concentration the chemical is dissolved in 500 ul of acetone and one gram of cucumber seed (RKN test) or soybean seed (SCN test) is added (e.g., 20 mg active ingredient in 500 ul acetone plus 1 gram of seed). The seed solutions are agitated until all seeds were thoroughly covered with the chemical solution. The acetone is then allowed to evaporate by air drying the seeds. The seeds are planted in 2-inch pots containing sandy soil and then the pots are inoculated with 1000 Meloidogyne incognita (RKN) or 1000 Heterodera glycines (SCN) eggs per pot three days after planting. Plants are rated for galling 14 days after egg inoculation for RKN or 28 days after egg inoculation for SCN.

A further series concerns mice. Conditions: cited from earlier work.
Series [2] concerns sting (Belonolaimus longicaudatus) nematodes. The series is described as follows: Sting nematode bench top soil assay. Format: in vivo. How it is done:
Populations of sting (Belonolaimus longicaudatus) nematodes are maintained on St. Augustine turf grass on soil in 15-cm pots. At test initiation the turf is removed from the pots and the soil containing nematode eggs, juveniles, and adults is subdivided into pots each containing a volume of 125 cm^3′ The compounds to be tested are dissolved in 3 ml of acetone using 3, 6, or 15 mg to achieve equivalent surface area application rates of 2, 4, or 10 kg/ha, respectively. The 3 ml acetone stock solution is added to 30 ml of water, and 5 ml of that solution is used to drench each of 6 replicate test pots prepared as described above. The treated pots containing nematodes are incubated in the laboratory at ambient temperature of approximately 25° C. After 3 days the soil from each pot is washed onto a modified Baermann apparatus comprised of a screen supporting a layer of filter paper on which the soil sample is placed and set in a dish of water. The samples are then incubated at 25° C. for 24 hours to allow the live nematodes to migrate through the paper and screen and into a water reservoir to be collected for counting with a light microscope. Nematodes that have been killed or immobilized by the test compounds are not able to migrate into the reservoir.

For series [3], the system named is Meloidogyne incognita. The series is described as follows: M. incognita miniaturized greenhouse assay on cucumber seedlings (root galling). Format: in vivo. Details: key to 1 ppm gall ratings / 1 ppm gall rating: mean of 3 gall ratings: 0=0-5%, 1=6-20%, 2=21-50%, 3=51-100% root galled. As to conditions: for 8 ppm gall ratings: average of triplicate gall rating, scale 0-3 (% root mass galled). The method, boiled down: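 Compound in acetone/Triton X100 stock (5 mg/mL) diluted into water with 0.015% Triton X100 and applied to sand-planted sprouted cucumber seedlings; inoculated with 500 M. incognita eggs two days after planting. Roots harvested 10–12 days later; galling scored 0–3 by % root mass galled, averaged over triplicates, plus visual root phytotoxicity rating.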

The subject of series [4] is CD-1/Swiss derived albino mice. Type of series: in vivo. Conditions: 500 mg/kg oral, three female mice, observed up to 14 days. As for the experimental part:
Acute oral toxicity testing was performed in mice in accordance with test method P203.UDP, as administered by Eurofins/Product Safety Laboratories (Dayton, N.J.). CD-1/Swiss derived albino mice were obtained and group housed in suspended solid bottom caging. The mice were fed rodent chow and filtered tap water was supplied ad libitum. Following acclimation to the laboratory setting, a group of animals was fasted overnight by removing food from the cages. After the fasting period, three female mice were selected based on vitality and initial body weights. The individual compound doses were calculated from these body weights.
The test substance was prepared as a 1% (50 mg/kg) or 5% (500 mg/kg) weight to weight (w/w) mixture in a 0.5% w/w solution of carboxymethylcellulose (CMC) in distilled water. A tissue homogenizer was used to create a homogeneous mixture. A dose of 50 or 500 mg/kg was administered to three healthy mice per dose level by oral intubation using a ball-tipped gavage needle attached to a syringe. After administration, the animals were returned to their cages, and feed was replaced immediately after dosing.
Body weights were recorded prior to initiation and on Days 7 and 14 or a soon as possible after death.

Series [5] concerns Meloidogyne incognita. The series is described as follows: Fall nematicidal field testing on squash microplots. Type of series: in vivo. As to conditions: for RG28 = % root galls at 28 days after treatment / RG43 = % root galls at 43 days after treatment: 2 kg ai/ha drench, squash. From the text: The test site was located at 3511 Highway F in New Melle, Mo., Saint Charles county. The soil was a native prairie/pasture covering silty clay loam soil. Holes were dug using a Bobcat 763 skid loader with a 12-inch auger to a depth of 18 inches. Total volume of each hole was about 1.2 cubic feet. Six cubic yards of topsoil and 9 tons of river sand were purchased from Dardenne Farms Topsoil. Mixing to a ratio of 4 volumes sand to 1 volume soil was accomplished using a trailer-mounted 9 cubic foot concrete mixer. Holes were filled and then re-filled 5 days later after settling. The mixture was 92.5% sand, 2.5% silt, and 5% clay. Organic matter was 0.2% and pH was 6.8.
Treatments were arranged in a block design with the blocks laid out perpendicular to the primary slope and parallel to secondary slope. There are 7 inoculated controls and 5 non-inoculated controls and the distributions of disease severity appeared independent of location.
Application rates are expressed as kg of active material per hectare, and the mg per plot is based on the surface area of the bored and filled holes (0.000008559 Ha). The DC compounds were formulated immediately before application as follows: 1) the amount required to treat all six replicates was dissolved in 300 ml of acetone, 2) for each plot 50 ml of that solution was added to a graduated cylinder with 2 ml of 12.5% Triton X100 and the volume was raised to 500 ml with tap water. The resultant mix is the same as used in the standard greenhouse assays (10% acetone, 0.05%×100). The oxamyl treatments were prepared from Vydate 2 L formulated the same way. The 500 ml was placed in a watering can and the entire volume was evenly sprinkled over the surface of the plot. No runoff occurred and pooling, if any, was short lived. The final drench volume was 0.58 ml/cm^2, compared to 0.2 ml/cm^2 used in our greenhouse, however the microplots are much deeper so the drench volume applied per soil volume treated is roughly the same.
Meloidogyne incognita eggs were harvested over a two week period and stored at approximately 5° C. until needed. A stock of 5.6 million vermiform eggs was adjusted to 9000/ml in 620 ml. One day after treatment, two holes were made in each plot about 7 cm apart and equidistant from the squash plants. Five ml of egg suspension was pipetted into each hole, which was then sealed and the plot lightly watered. A total of 90,000 vermiform eggs were added to each plot.
The first root evaluation was at 28 DAT. The tops were cut off and weighed immediately in the field, and the roots were carefully dug out so as not to disturb the remaining plant.

The subject of series [6] is Meloidogyne incognita. The series can be described thus: Summer field evaluation of pre-plant incorporated compounds on squash. Format: in vivo. As for the experimental part:
Test plots of 33 cm diameter holes were bored 41 cm deep into clay soil and filled with a mixture of 80% sand and 20% silt loam soil. Technical compound for each treatment was dissolved in 50 ml acetone containing 250 ul of Triton X-100 surfactant. This solution was added to 450 ml water and poured onto 95 liters of sand/soil mixture in a rotating drum mixer. While continuing to rotate the mixing drum 66 grams of chopped, galled, tomato roots was added and thoroughly distributed. The treated soil was sufficient to fill the top 15 cm of each of the 6 replicate plots, thus simulating a PPI treatment. The plots were then watered lightly and a mixture of M. incognita eggs and larvae were injected 5 cm deep at 5 points within the plot (100 k eggs/larvae in 10 ml per plot). Three-week old squash (cv. Liberator III) with 1 fully expanded true leaf was planted 4 days after soil treatment, one per plot.

The next series deals with root knot nematode (RKN). The series is described as follows: RKN greenhouse soil assay on cucumber plants. Type of series: in vivo, Meloidogyne incognita. As to conditions: 0 day treatment, test c. The source says:
Cucumber seeds are planted in a sandy soil mixture in two inch square plastic pots. When the cotyledons are fully opened and just as the first leaf begins to emerge, usually 7 days after planting, chemistry for the 7 day treatment is applied. One week later the chemistry for the 0 day treatment is applied. Separate plants are used for each application. The plants are generally in the 1-2 leaf stage now. At least four hours after the chemistry application the pots are inoculated with root knot nematode (RKN) eggs. Plants are rated for galling 14 days after the egg inoculation.
One milligram of chemistry per four pots is equal to one kilogram per hectare of chemical. A standard test uses four replications. For rates above 2 kg/ha, the desired amount of chemical is weighed into a 30 ml vial (example: 8 kg/ha rate=8 mg chemical in 30 ml vial). The chemical is dissolved in 2 ml of appropriate solvent, generally acetone. For rates below 2 kg/ha, 2 milligrams of chemistry is weighed into the vial and dissolved in 2 ml of the solvent. The appropriate amount of chemical concentrate is then pipetted into a separate 30 ml vial and solvent is added to bring the volume to 2 ml (example 0.5 kg/ha=0.5 ml of concentrate+1.5 ml solvent). Each dissolved concentrate is then brought to a total of 20 milliliters using 0.05% Triton X 100 surfactant solution.
Pots to be treated are moist but not saturated. To each of four pots, five milliliters of the appropriate chemical solution is pipetted to the media surface making sure to avoid contact with the base of the plant. Immediately following chemical application, using a mist nozzle, the pot surface is wetted sufficiently to saturate the pot watering in the chemistry. The chemical application is done in the morning.
Nematode eggs, either SCN or RKN, are added to distilled water to create a concentration of 1000 vermiform eggs […]. At least four hours after chemical treatment the eggs are applied to the treated pots plus non-treated check plants. A small hole about 1 cm deep is punched into the pot surface. One milliliter of the nematode egg slurry is pipetted into the hole. Immediately afterwards the hole is gently covered. Watering of the test plants is then restricted to only water as needed to prevent wilt for a period of 24 hours. After the 24 hour restricted watering, normal sub-irrigation watering is done for the duration of the test.

On to `CS/C(C)=N\OC(=O)N(C)SN(C)C(=O)O/N=C(\C)SC` [Thiodicarb], for which the “percent cyst reduction relative to control blank treatment” value in series [1] (0.375 mg al/gram seed) is 6^a percent; in series [1] (1.5 mg al/gram seed) it was −23^a percent.
In the case of `CNC(=O)O/N=C/C(C)(C)SC` [aldicarb], the “oral LD50 in mice” value in the series with mice was 0.3 mg/kg.
With `c1ccc(-c2cnc(-c3cccs3)o2)cc1` [compound 4417], the “Number of nematodes recovered from treated soil after 3 days incubation with the compound” value (“Number of nematodes recovered” below) in series [2] (2 kg/ha) was found to be 24. Further, the “Number of nematodes recovered” value in series [2] (4 kg/ha) was 13. The “Number of nematodes recovered” value in series [2] (10 kg/ha) was 7. For the same compound, in the series with Meloidogyne incognita [3], the “8 ppm gall ratings” value worked out at 0.33. Also, the “mortality, signs of gross toxicity and behavioral changes” value in series [4] was “One animal died within four days”. Besides, in the series with Meloidogyne incognita [5], the “RG28 = % root galls at 28 days after treatment” value came to 25.5% and the “RG43 = % root galls at 43 days after treatment” value was found to be 38.2%. Further, in the series with Meloidogyne incognita [5] (2 kg/ha, 28 DAT), the “root weights (in words)” value is “not affected” and the “top weights (in words)” value was “reduction in top weights”. The “Leaf diameter of the first true leaves” value with Meloidogyne incognita [5] (2 kg/ha, five days after treatment (5 DAT)) is given as “slight reduction”. The “phytotoxicity on squash seedlings” value with Meloidogyne incognita [5] (2 kg/ha, two days after treatment) is given as “slight phytotoxicity”.
As for `Clc1ccc(-c2nnc(-c3cccs3)o2)cc1` [compound 4559], the “Number of nematodes recovered” value in series [2] (2 kg/ha) is reported as 39; in series [2] (4 kg/ha), 47; in series [2] (10 kg/ha), 33. The “1 ppm gall ratings” value in the series on Meloidogyne incognita [3] (Table 1B test a) is 1^a (1=6-20%). In the series with Meloidogyne incognita [3], the “8 ppm gall ratings” value is listed as 0 (0=0-5%). The “RG28 = % root galls at 28 days after treatment” value with Meloidogyne incognita [5] worked out at 34.2%. The “RG43 = % root galls at 43 days after treatment” value in the series with Meloidogyne incognita [5] was 24.0%. The “control of root galling compared with oxamyl at an equivalent rate” value in the series on Meloidogyne incognita [5] (2 kg/ha, 43 day time point) is reported as “significantly better than oxamyl”.
On to `Clc1ccc(-c2nsc(-c3ccco3)n2)c(Cl)c1` [compound 5960], for which the “1 ppm gall ratings” value in the series on Meloidogyne incognita [3] (Table 1B test e) is reported as 0.33^e. In the series on Meloidogyne incognita [6] (4 kg (kg/ha) PPI, squash), the “0-3 vigor 16 DAP” value stood at 3.0, the “0-3 vigor 21 DAP” value is recorded as 3.0, the “feeder root (3 = ave) 31 DAP” value was 3.3 and the “gall % 31 DAP” value is 24%. Besides, in the series with Meloidogyne incognita [6] (4 kg (kg/ha) PPI, squash), the “root wgt (g) 31 DAP” value was 32.6 g, the “top wgt (lbs) 31 DAP” value was 1.58 lbs and the “total fruit (lbs)” value worked out at 1.61 lbs. For the same compound, the “control of M. incognita (in words)” value in the series on Meloidogyne incognita [6] (PPI application at 4 kg/ha) was “significant control”. Moreover, the “mortality, signs of gross toxicity and behavioral changes” value in series [4] is “all animals survived, gained body weight, and appeared active and healthy”. In addition, the “percent control (galling reduction) relative to the control blank treatment” value with root knot nematode (RKN) (0.05 kg/ha) is given as “— — 75^c percent”. Moreover, the “percent control (galling reduction) relative to the control blank treatment” value in the series with root knot nematode (RKN) (0.1 kg/ha) is on record as “— — 75^c percent”. Besides, the “percent control (galling reduction) relative to the control blank treatment” value in the series with root knot nematode (RKN) (0.25 kg/ha) is “— — 76^c percent”.
